test: Rcp of ^99mTc-HMPAO after addition of a single stabiliser, two step process (Example 1); assay type: physicochemical; conditions: additive added 2 minutes post-radiolabelling; amount as in table; n = 3 (*n = 1)
Protocol: To each of ten vials each containing 0.5 mg of HMPAO and 4.0 μg of Sn^2+ (stannous), was added sodium pertechnetate (1.48 GBq in 5 ml of saline) to carry out the radiolabelling. To each of 9 of the ten reconstituted vials was individually added the compound shown in Table 1 at a time of 2 minutes post-radiolabelling. Nothing was added to the remaining vial. At 1 minute and 3 hours after the addition, an aliquot was taken from each vial and the Rcp measured by a combination of three chromatographic systems (stationary phase/developing solvent: silica gel/methyl ethyl ketone, silica gel/saline, filter paper/50% aqueous acetonitrile).

Rcp 1 min from addition (%) | Rcp 3 hours from addition (%) | Structure (SMILES)
80 ± 8% | 67 ± 5% | Nc1ccc(C(=O)O)cc1 [4-Aminobenzoic acid, 4-aminobenzoic acid]
83* % | 41* % | O=C1O[C@H]([C@@H](O)CO)C(O)=C1O [Ascorbic acid]
61 ± 3% | 29 ± 13% | O=C(NCCO)c1cc(O)ccc1O [Gentisic acid ethanolamide]
87 ± 2% | 77 ± 3% | O=C(O)c1cc(O)ccc1O [Gentisic acid]
79* % | 30* % | O=P(O)(O)CP(=O)(O)O [Methylene diphosphonic acid, methylenediphosphonic acid]
69 ± 5% | 39 ± 11% | Nc1ccc(C(=O)[O-])cc1.[Na+] [Sodium4-amino-benzoate, sodium 4-aminobenzoate]
90* % | 51* % | O=C1O[C@H]([C@@H](O)CO)C([O-])=C1O.[Na+] [Sodium ascorbate]
51* % | 14* % | O=C(O)CCC(=O)O [Succinic acid]

Structure (SMILES) | Rcp 1 min from addition (%) | Rcp 3 hours from addition (%)
[Cl][Co][Cl] [Cobalt chloride] | 94 ± 3% | 89 ± 2%

Source: patent US7914768B2, “Stabiliser for radiopharmaceuticals” (GE Healthcare Limited, priority 2000, dated 2011)
